Data from patent US20100267561A1, “HERBICIDAL PYRIDAZINONE DERIVATIVES” (priority 2007, published 2010).

Key:
Test in all cases: Test B pre-/postemergence plant response
Type in all cases: in vivo
[1] = system: kochia (Kochia scoparia); conditions: for Kochia plant response rating: 8 g ai/ha
Summary of the method: (§1)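 Seeds were sown and sprayed preemergence, while plants at 2 to 18 cm (1- to 4-leaf stage) got postemergence sprays. Compounds were formulated in a non-phytotoxic solvent mixture with surfactant. After 13 to 15 days in a greenhouse, injury was rated visually against untreated controls, 0 (no effect) to 100 (complete control).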

[2] = system: Italian ryegrass (Lolium multiflorum); conditions: for Ryegrass, Italian plant response rating: 8 g ai/ha
Summary of the method: as §1

[3] = system: soybean (Glycine max); conditions: for Soybean plant response rating: 8 g ai/ha
Summary of the method: as §1

[4] = system: morningglory (Ipomoea coccinea); conditions: for Morningglory plant response rating: 8 g ai/ha
Summary of the method: as §1

[5] = system: wheat (Triticum aestivum); conditions: for Wheat plant response rating: 8 g ai/ha
Summary of the method: as §1

[6] = system: cocklebur (Xanthium strumarium); conditions: for Cocklebur plant response rating: 8 g ai/ha
Summary of the method: as §1

[7] = system: common (oilseed) sunflower (Helianthus annuus); conditions: Preemergence; for Sunflower plant response rating: 8 g ai/ha
Summary of the method: as §1

[8] = system: common ragweed (Ambrosia elation); conditions: for Ragweed plant response rating: 8 g ai/ha
Summary of the method: as §1

[9] = system: bermudagrass (Cynodon dactylon); conditions: for Bermudagrass plant response rating: 8 g ai/ha
Summary of the method: as §1

[10] = system: lambsquarters (Chenopodium album); conditions: for Lambsquarters plant response rating: 8 g ai/ha
Summary of the method: as §1

[11] = system: velvetleaf (Abutilon theophrasti); conditions: for Velvetleaf plant response rating: 8 g ai/ha
Summary of the method: as §1

[12] = system: johnsongrass (Sorghum halepense); conditions: for Johnsongrass plant response rating: 8 g ai/ha
Summary of the method: as §1

[13] = system: surinam grass (Brachiaria decumbens); conditions: for Surinam Grass plant response rating: 8 g ai/ha
Summary of the method: as §1

[14] = system: goosegrass (Eleusine indica); conditions: for Goosegrass plant response rating: 8 g ai/ha
Summary of the method: as §1

[15] = Postemergence, 16 g ai/ha, scale 0 to 100
[16] = Postemergence, 31 g ai/ha, scale 0 to 100, 0 no effect, 100 complete control
[17] = Postemergence, 62 g ai/ha, scale 0 to 100
[18] = Preemergence, 16 g ai/ha, scale 0 to 100 (0 no effect, 100 complete control)
[19] = Preemergence, 62 g ai/ha, scale 0 to 100
[20] = Preemergence, 31 g ai/ha, 0 to 100 scale, 0 no effect, 100 complete control
[21] = 16 g ai/ha, scale 0 to 100 (0 no effect, 100 complete control)
[22] = 31 g ai/ha, 0 to 100 scale, 0 no effect, 100 complete control
[23] = Preemergence, scale 0 to 100 (0 no effect, 100 complete control)

CCc1cc(-c2ccc(C(F)(F)F)cc2)nn1-c1c(OS(C)(=O)=O)cnn(C)c1=O [Compound 19]
75: Plant response rating, Goosegrass [14, 18]
50: Ryegrass, Italian plant response rating ([2]; Preemergence, scale 0 to 100) | Goosegrass plant response rating ([14]; postemergence, 0-100 scale)
0: Kochia plant response rating ([1]; postemergence, 0-100 scale) | Plant response rating, Kochia [1, 15] | Plant response rating, Kochia [1, 16] | Plant response rating, Kochia [1, 17] | Plant response rating, Kochia [1, 18] | Plant response rating, Kochia [1, 19] | Kochia plant response rating ([1]; Preemergence, scale 0 to 100) | Soybean plant response rating ([3]; postemergence, 0-100 scale) | Plant response rating, Soybean [3, 15] | Plant response rating, Soybean [3, 16] | Plant response rating, Soybean [3, 17] | Plant response rating, Soybean [3, 19] | Soybean plant response rating ([3]; Preemergence, scale 0 to 100) | Morningglory plant response rating ([4]; postemergence, 0-100 scale) | Plant response rating, Morningglory [4, 15] | Plant response rating, Morningglory [4, 16] | Plant response rating, Morningglory [4, 17] | Plant response rating, Morningglory [4, 18] | Plant response rating, Morningglory [4, 20] | Plant response rating, Morningglory [4, 19] | Morningglory plant response rating ([4]; Preemergence, scale 0 to 100) | Wheat plant response rating ([5]; postemergence, 0-100 scale) | Wheat plant response rating ([5]; Preemergence, scale 0 to 100) | Cocklebur plant response rating ([6]; postemergence, 0-100 scale) | Plant response rating, Cocklebur [6, 15] | Plant response rating, Cocklebur [6, 16] | Plant response rating, Cocklebur [6, 17] | Plant response rating, Cocklebur [6, 18] | Plant response rating, Cocklebur [6, 20] | Plant response rating, Cocklebur [6, 19] | Cocklebur plant response rating ([6]; Preemergence, scale 0 to 100) | Plant response rating, Sunflower [7, 21] | Plant response rating, Sunflower [7, 22] | Plant response rating, Sunflower ([7]; 62 g ai/ha, scale 0 to 100) | Sunflower plant response rating ([7]; scale 0 to 100) | Ragweed plant response rating ([8]; postemergence, 0-100 scale) | Plant response rating, Ragweed [8, 15] | Plant response rating, Ragweed [8, 16] | Plant response rating, Ragweed [8, 17] | Plant response rating, Ragweed [8, 18] | Plant response rating, Ragweed [8, 20] | Plant response rating, Ragweed [8, 19] | Ragweed plant response rating ([8]; Preemergence, scale 0 to 100) | Bermudagrass plant response rating [9, 23] | Lambsquarters plant response rating ([10]; postemergence, 0-100 scale) | Plant response rating, Lambsquarters [10, 15] | Plant response rating, Lambsquarters [10, 16] | Plant response rating, Lambsquarters [10, 17] | Plant response rating, Lambsquarters [10, 18] | Plant response rating, Lambsquarters [10, 20] | Velvetleaf plant response rating ([11]; postemergence, 0-100 scale) | Plant response rating, Velvetleaf [11, 15] | Plant response rating, Velvetleaf [11, 16] | Plant response rating, Velvetleaf [11, 17] | Plant response rating, Velvetleaf [11, 18] | Plant response rating, Velvetleaf [11, 20] | Plant response rating, Velvetleaf [11, 19] | Velvetleaf plant response rating ([11]; Preemergence, scale 0 to 100) | Goosegrass plant response rating ([14]; Preemergence, scale 0 to 100)
98: Plant response rating, Ryegrass, Italian [2, 15] | Plant response rating, Wheat [5, 17] | Plant response rating, Bermudagrass [9, 20] | Plant response rating, Surinam Grass [13, 20]
60: Plant response rating, Wheat [5, 15]
100: Plant response rating, Ryegrass, Italian [2, 16] | Plant response rating, Ryegrass, Italian [2, 17] | Plant response rating, Ryegrass, Italian [2, 20] | Plant response rating, Ryegrass, Italian [2, 19] | Plant response rating, Bermudagrass [9, 15] | Plant response rating, Bermudagrass [9, 16] | Plant response rating, Bermudagrass [9, 17] | Plant response rating, Bermudagrass [9, 19] | Plant response rating, Johnsongrass [12, 16] | Plant response rating, Johnsongrass [12, 17] | Plant response rating, Johnsongrass [12, 18] | Plant response rating, Johnsongrass [12, 20] | Plant response rating, Johnsongrass [12, 19] | Plant response rating, Surinam Grass [13, 15] | Plant response rating, Surinam Grass [13, 16] | Plant response rating, Surinam Grass [13, 17] | Plant response rating, Surinam Grass [13, 19] | Plant response rating, Goosegrass [14, 20] | Plant response rating, Goosegrass [14, 19]
90: Plant response rating, Ryegrass, Italian [2, 18] | Plant response rating, Wheat [5, 20] | Plant response rating, Bermudagrass [9, 18] | Surinam Grass plant response rating ([13]; postemergence, 0-100 scale) | Plant response rating, Goosegrass [14, 17]
95: Plant response rating, Wheat [5, 19]
80: Ryegrass, Italian plant response rating ([2]; postemergence, 0-100 scale) | Bermudagrass plant response rating ([9]; postemergence, 0-100 scale) | Plant response rating, Johnsongrass [12, 15] | Johnsongrass plant response rating ([12]; Preemergence, scale 0 to 100) | Plant response rating, Surinam Grass [13, 18] | Surinam Grass plant response rating ([13]; Preemergence, scale 0 to 100) | Plant response rating, Goosegrass [14, 15] | Plant response rating, Goosegrass [14, 16]
10: Plant response rating, Wheat [5, 18]
40: Plant response rating, Lambsquarters [10, 19] | Johnsongrass plant response rating ([12]; postemergence, 0-100 scale)
85: Plant response rating, Wheat [5, 16]

CCc1cc(-c2ccc(F)cc2)nn1-c1c(O)cnn(C)c1=O [Compound 25]
0: Kochia plant response rating ([1]; postemergence, 0-100 scale) | Plant response rating, Kochia [1, 15] | Plant response rating, Kochia [1, 16] | Plant response rating, Kochia [1, 17] | Plant response rating, Kochia [1, 18] | Kochia plant response rating ([1]; Preemergence, scale 0 to 100) | Soybean plant response rating ([3]; postemergence, 0-100 scale) | Plant response rating, Soybean [3, 15] | Plant response rating, Soybean [3, 16] | Plant response rating, Soybean [3, 17] | Plant response rating, Soybean [3, 18] | Plant response rating, Soybean [3, 20] | Plant response rating, Soybean [3, 19] | Soybean plant response rating ([3]; Preemergence, scale 0 to 100) | Morningglory plant response rating ([4]; postemergence, 0-100 scale) | Plant response rating, Morningglory [4, 15] | Plant response rating, Morningglory [4, 16] | Plant response rating, Morningglory [4, 18] | Plant response rating, Morningglory [4, 20] | Plant response rating, Morningglory [4, 19] | Morningglory plant response rating ([4]; Preemergence, scale 0 to 100) | Wheat plant response rating ([5]; postemergence, 0-100 scale) | Plant response rating, Wheat [5, 15] | Plant response rating, Wheat [5, 16] | Plant response rating, Wheat [5, 17] | Plant response rating, Wheat [5, 18] | Plant response rating, Wheat [5, 20] | Wheat plant response rating ([5]; Preemergence, scale 0 to 100) | Cocklebur plant response rating ([6]; postemergence, 0-100 scale) | Plant response rating, Cocklebur [6, 15] | Plant response rating, Cocklebur [6, 16] | Plant response rating, Cocklebur [6, 17] | Plant response rating, Cocklebur [6, 18] | Plant response rating, Cocklebur [6, 20] | Plant response rating, Cocklebur [6, 19] | Cocklebur plant response rating ([6]; Preemergence, scale 0 to 100) | Plant response rating, Sunflower [7, 21] | Plant response rating, Sunflower [7, 22] | Plant response rating, Sunflower ([7]; 62 g ai/ha, scale 0 to 100) | Sunflower plant response rating ([7]; scale 0 to 100) | Ragweed plant response rating ([8]; postemergence, 0-100 scale) | Plant response rating, Ragweed [8, 15] | Plant response rating, Ragweed [8, 16] | Plant response rating, Ragweed [8, 17] | Plant response rating, Ragweed [8, 18] | Plant response rating, Ragweed [8, 20] | Plant response rating, Ragweed [8, 19] | Ragweed plant response rating ([8]; Preemergence, scale 0 to 100) | Bermudagrass plant response rating ([9]; postemergence, 0-100 scale) | Plant response rating, Bermudagrass [9, 15] | Bermudagrass plant response rating [9, 23] | Lambsquarters plant response rating ([10]; postemergence, 0-100 scale) | Plant response rating, Lambsquarters [10, 15] | Plant response rating, Lambsquarters [10, 16] | Plant response rating, Lambsquarters [10, 18] | Plant response rating, Lambsquarters [10, 20] | Lambsquarters plant response rating ([10]; Preemergence, scale 0 to 100) | Velvetleaf plant response rating ([11]; postemergence, 0-100 scale) | Plant response rating, Velvetleaf [11, 15] | Plant response rating, Velvetleaf [11, 16] | Plant response rating, Velvetleaf [11, 17] | Plant response rating, Velvetleaf [11, 18] | Plant response rating, Velvetleaf [11, 20] | Plant response rating, Velvetleaf [11, 19] | Velvetleaf plant response rating ([11]; Preemergence, scale 0 to 100) | Johnsongrass plant response rating ([12]; postemergence, 0-100 scale) | Plant response rating, Johnsongrass [12, 15] | Plant response rating, Johnsongrass [12, 16] | Plant response rating, Johnsongrass [12, 18] | Plant response rating, Johnsongrass [12, 20] | Plant response rating, Johnsongrass [12, 19] | Johnsongrass plant response rating ([12]; Preemergence, scale 0 to 100) | Goosegrass plant response rating ([14]; postemergence, 0-100 scale) | Plant response rating, Goosegrass [14, 15] | Plant response rating, Goosegrass [14, 16] | Goosegrass plant response rating ([14]; Preemergence, scale 0 to 100)
100: Plant response rating, Ryegrass, Italian [2, 19] | Plant response rating, Bermudagrass [9, 19] | Plant response rating, Surinam Grass [13, 17] | Plant response rating, Surinam Grass [13, 19]
75: Plant response rating, Goosegrass [14, 20]
60: Ryegrass, Italian plant response rating ([2]; postemergence, 0-100 scale) | Plant response rating, Bermudagrass [9, 16] | Plant response rating, Bermudagrass [9, 17] | Plant response rating, Surinam Grass [13, 15]
10: Plant response rating, Lambsquarters [10, 17]
15: Plant response rating, Wheat [5, 19]
50: Plant response rating, Kochia [1, 19] | Plant response rating, Ryegrass, Italian [2, 18] | Ryegrass, Italian plant response rating ([2]; Preemergence, scale 0 to 100) | Surinam Grass plant response rating ([13]; postemergence, 0-100 scale) | Surinam Grass plant response rating ([13]; Preemergence, scale 0 to 100) | Plant response rating, Goosegrass [14, 17] | Plant response rating, Goosegrass [14, 18]
20: Plant response rating, Morningglory [4, 17]
85: Plant response rating, Ryegrass, Italian [2, 16] | Plant response rating, Surinam Grass [13, 18] | Plant response rating, Surinam Grass [13, 20] | Plant response rating, Goosegrass [14, 19]
95: Plant response rating, Ryegrass, Italian [2, 17] | Plant response rating, Surinam Grass [13, 16]
40: Plant response rating, Lambsquarters [10, 19]
90: Plant response rating, Ryegrass, Italian [2, 20]
30: Plant response rating, Johnsongrass [12, 17]
70: Plant response rating, Bermudagrass [9, 18]
80: Plant response rating, Ryegrass, Italian [2, 15] | Plant response rating, Bermudagrass [9, 20]
